From US20240158418A1 (C4 Therapeutics, Inc., priority 2021, published 2024)
“Also recorded” adds a separate entry of the source.

Key:
[1] = biological target: T1, Phospho-EGFR Receptor Tyr1068 (Homo sapiens, UniProt P00533, L858R/T790M); test: Phospho-EGFR in NCI-H1975 tumors after single oral dose (western blot); type: in vivo, female BALB/c nude mice
T1 construct: female BALB/c nude mice bearing NCI-H1975 NSCLC tumors; from tissue; host or cells: NCI-H1975 subcutaneous xenograft tumours from female BALB/c nude mice
Experimental: Compound 1 was administered as a single oral (PO) dose at 10, 25, or 50 mg/kg to female BALB/c nude mice with NCI-H1975 tumors. At 4h, 6h or 12h tumors were harvested and the protein expression of mutant EGFR-L858R and phospho-EGFR was measured by western blot.
A xenograft study was conducted in female BALB/c nude mice bearing NCI-H1975 NSCLC tumors. Female nude mice were inoculated subcutaneously in the right flank with 5×10^6 tumors cells in 0.1 mL of PBS. Tumor volume was measured twice weekly in two dimensions using calipers, and volume (mm^3) was calculated using the formula: V=0.5 a×b2 where a and b are the long and short diameters of the tumor in mm, respectively. […]
All agents were administered to mice bearing NCI-H1975 tumors on day 0 as a single oral (PO) dose. […] Protein concentration was quantified using a Pierce™ BCA Protein Assay Kit, samples were reduced, and equal protein amounts were then loaded onto a western blot gel for analysis. Tumors were analyzed for EGFR Receptor L858R Mutant Specific (CST, 3197) or Phospho-EGFR Receptor Tyr1068 (CST, 2234) expression. The intensity of individual bands was measured for data analysis using Image Studio software. Protein expression was quantitated in relation to the reference protein, alpha-tubulin, to control for total protein concentration. […]

[2] = tested on: intracranial NCI-H1975-luciferase expressing NSCLC tumors; test: NCI-H1975-luc intracranial tumor model (intracranial injection into forebrain); type: in vivo, female BALB/c nude mice; conditions: 100 mg/kg/day PO BID
Experimental: Compound 1 efficacy in a NCI-H1975-luciferase expressing intracranial tumor model established by injecting tumor cells intracranially into the mouse forebrain was evaluated at […]: 100 mg/kg/day. Compound 1 was administered BID (twice a day) orally (PO). Eight mice were used per group.
2×10^5 luciferase-expressing NCI-H1975-luc tumor cells suspended in 2 μL RPMI-1640 media were injected into the right forebrain of female BALB/c nude mice. Tumor growth was monitored using imaging analysis. Mice were injected intraperitoneally with 15 mg/mL of D-luciferin and anesthetized with 1-2% isoflurane inhalation. 10 minutes post luciferin injection, mice were imaged using IVIS Lumina III (Perkin Elmer) and total bioluminescence signal (BLI, photons/s) was measured in a region of interest (ROI). BLI from ROI were quantified and used as an indicator of tumor burden. 7 days post tumor cell inoculation mice were randomized into groups of 8 with a mean BLI of 27×10^6 photons/s. All agents were administered to mice bearing NCI-H1975-luc brain tumors on day 8. […] Body weight and MTV were measured on a 2× weekly schedule. Statistical analysis was calculated using the Mann-Whitney U test. Data are expressed as bioluminescent signal (photons/s).

EGFR-L861Q = biological target: T2, EGFR-L861Q (Homo sapiens, UniProt P00533, L861Q); test: KINOMEscan scanMAX, EGFR-L861Q; type: binding; conditions: 100 nM
T2 construct: purchased Eurofins DiscoverX KINOMEscan scanMAX; host or cells: E. coli BL21-derived (T7 phage) or HEK-293
Experimental: Kinome-wide binding selectivity of CFT8919 was assessed via the KINOMEscan scanMAX assay at Eurofins DiscoverX (Freemont, CA, USA). Compound was tested at 100 nM against a diverse panel of 468 kinases. The size of circles was mapped onto the kinase phylogenetic tree utilizing DiscoverX TREEspot using <50% of % control as a cutoff.
For most assays, kinase-tagged T7 phage strains were grown in parallel in 24-well blocks in an E. coli host derived from the BL21 strain. E. coli were grown to log-phase and infected with T7 phage from a frozen stock (multiplicity of infection=0.4) and incubated with shaking at 32° C. until lysis (90-150 minutes). The lysates were centrifuged (6,000×g) and filtered (0.2 μm) to remove cell debris. The remaining kinases were produced in HEK-293 cells and subsequently tagged with DNA for qPCR detection. Streptavidin-coated magnetic beads were treated with biotinylated small molecule ligands for 30 minutes at room temperature to generate affinity resins for kinase assays. The liganded beads were blocked with excess biotin and washed with blocking buffer (SeaBlock (Pierce), 1% BSA, 0.05% Tween 20, 1 mM DTT) to remove unbound ligand and to reduce non-specific phage binding. […] Test compounds were prepared as 40× stocks in 100% DMSO and directly diluted into the assay. […] The kinase concentration in the eluates was measured by qPCR.

EGFR L858R = EGFR L858R (Homo sapiens, UniProt P00533, L858R); test: Western blot NCI-H3255, Compound 1 with or without osimertinib: EGFR-L858R; type: cell-based; conditions: NCI-H3255, six hours, 0-1,500 nM, presence and absence of 1,500 nM osimertinib
Excerpt: The compound bearing solutions were formulated to achieve a 0.1% final concentration of DMSO. […] Antibodies used in western blot were purchased from the following vendors: EGFR-L858R specific antibody (CST 3197), pY1068 EGFR (CST 2234), pERK (CST 4370), ERK (CST 4695), vinculin (Millipore 05-386).

O=C1CC[C@H](Nc2ccc(N3CCC(O)(CC(=O)N4CC5(C4)CN(c4ccc(-c6cc(F)c7c(c6)C(=O)N(C(C(=O)Nc6nccs6)c6ncn8c6CCC8)C7)cc4)C5)CC3)c(F)c2)C(=O)N1 (stereo partly drawn) [Compound 1, 2-(6,7-dihydro-5H-pyrrolo[1,2-c]imidazol-1-yl)-2-[6-[4-[2-[2-[1-[4-[[(3S)-2,6-dioxo-3-piperidyl]amino]-2-fluoro-phenyl]-4-hydroxy-4-piperidyl]acetyl]-2,6-diazaspiro[3.3]heptan-6-yl]phenyl]-4-fluoro-1-oxo-isoindolin-2-yl]-N-thiazol-2-yl-acetamide]
phospho-EGFR decrease in vivo ([1]; after a single oral dose, NCI-H1975 tumors): > 95% | phospho-EGFR protein expression in tumors ([1]; single PO dose 10, 25 or 50 mg/kg, 4, 6 and 12 hours): phospho-EGFR inhibition | Statistical Significance Compared to Vehicle ([2]; NCI-H1975-luc cells intracranial): 0.001 | efficacy on NCI-H1975-luc BLI (tumor burden) ([2]; intracranial forebrain model, 100 mg/kg/day): reduced tumor volume; also recorded: tumor regression | percent binding remaining (EGFR-L861Q): < 50% | EGFR-L858R degradation (western blot) (EGFR L858R): efficiently degraded
